The values that follow come from patent US4939163A, “Anticonvulsant agents” (Eli Lilly and Company, priority 1989, dated 1990).

In the first assay the test system is seizures in man.
Assay: not given
The following applies: Gilman, Goodman, and Gilman, 6th Ed., p. 455; cited from earlier work.
As to `O=C1NC(=O)C(c2ccccc2)(c2ccccc2)N1` [phenytoin], the “plasma level at which seizures are controlled” value is ≥ 10 µg/mL.

The next assay relates to tonic extensor seizures elicited by maximal electroshock. Nature of the assay: electroshock induced convulsion inhibition assay (E.S.). It counts as in vivo, Cox standard strain albino male mice. The following applies: mouse, oral dose (gavage), 0.1 second 50 milliampere corneal electroshock, inhibition of extensor tonic convulsions, at time of optimal response. As for the experimental part:
In the electroshock induced convulsion inhibition assay (E.S.), the compound to be tested was suspended in acacia and administered by gavage to each of ten Cox standard strain albino male mice (18-24 g) at the dose level being investigated. […] The animals were examined and evaluated immediately after the electroshock for the occurrence of clonic, flexor tonic, or extensor tonic convulsions, or death and the ED50 was determined for each compound as the dose which inhibited the occurrence of extensor tonic convulsions in one half of the animals immediately after the electroshock. For comparison, 18 milliamperes was usually sufficient to produce extensor tonic convulsions in about half of the control animals; at 50 milliamperes, almost all control animals (receiving vehicle only) died. The test results summarized in Table I are reported as the ED50 values at the time interval found to provide an optimal response after dosing.
Take `Cc1cccc(C)c1NC(=O)c1ccc(C(F)(F)F)cc1` [Example 1, N-(2,6-dimethylphenyl)-4-(trifluoromethyl)benzamide]: the 50% effective dose (ED50) (usually the midpoint of the dose-response relation) is ~225 mg/kg.
On the same count and under the same terms, to `Cc1cccc(C)c1NC(=O)c1ccc(C#N)cc1` [Example 2, 4-Cyano-N-(2,6-dimethylphenyl)benzamide] belongs 13.2 mg/kg; to `Cc1ccc(C(=O)Nc2c(C)cccc2C)cc1` [Example 3, N-(2,6-dimethylphenyl)-4-methylbenzamide], ~250 mg/kg; to `COc1ccc(C(=O)Nc2c(C)cccc2C)cc1` [Example 4, N-(2,6-dimethylphenyl)-4-methoxybenzamide], 15 mg/kg.
The same measure, in the same setting: to `CSc1ccc(C(=O)Nc2c(C)cccc2C)cc1` [Example 5, N-(2 6-dimethylphenyl)-4-(methylthio)benzamide] belongs ~75 mg/kg; to `Cc1cccc(C)c1NC(=O)c1ccc(N(C)C)cc1` [Example 6, 4-(Dimethylamino)-N-(2,6-dimethylphenyl)benzamide], 3.65 mg/kg; to `CCNc1ccc(C(=O)Nc2c(C)cccc2C)cc1` [Example 7, N-(2,6-dimethylphenyl)-4-(ethylamino)benzamide], 2.45 mg/kg.
Take `CNc1ccc(C(=O)Nc2c(C)cccc2C)cc1` [Example 8, N-(2,6-dimethylphenyl)-4-(methylamino)benzamide]: the ED50 is 2 mg/kg.
The same measure, in the same setting: in the case of `CCCN(C)c1ccc(C(=O)Nc2c(C)cccc2C)cc1` [Example 9, N-(2,6-dimethylphenyl)-4-(methylpropylamino)benzamide] it was 4.6 mg/kg.
The same measure, in the same setting: to `Cc1cccc(C)c1NC(=O)c1ccc(-n2ccnc2)cc1.Cl` [Example 10, N-(2,6-dimethylphenyl)-4-(1H-imidazol-1-yl)benzamide hydrochloride] belongs ~50 mg/kg; to `Cc1cccc(C)c1NC(=O)c1ccc(CN)cc1.Cl` [Example 11, 4-(Aminomethyl)-N-(2,6-dimethylphenyl)benzamide hydrochloride], 38 mg/kg.
On the same count and under the same terms, in the case of `Cc1cccc(C)c1NC(=O)c1ccc(C(N)=O)cc1` [Example 12, N-(2,6-Dimethylphenyl)-1,4-benzenedicarboxamide] it was ~75 mg/kg; in that of `Cc1cccc(C)c1NC(=O)c1ccc([S+](C)[O-])cc1` (stereo not shown) [Example 13, N-(2,6-dimethylphenyl)-4-(methylsulfinyl)benzamide], 13 mg/kg.
Turning to `Cc1cccc(C)c1NC(=O)c1ccc(S(C)(=O)=O)cc1` [Example 14, N-(2,6-dimethylphenyl)-4-(methylsulfonyl)benzamide], the ED50 worked out at 14 mg/kg.
`Cc1cccc(C)c1NC(=O)c1ccc(O)cc1` [Example 15, N-(2,6-dimethylphenyl)-4-hydroxybenzamide] displayed an ED50 of 11.2 mg/kg.
